The test system of data set [1] is B-16 melanoma cells. In words: Test for evaluating melanogenesis-inhibitory function (cell-whitening degree) in cell culture systems using B-16 melanoma cells. Set-up: key to Whitening degree: ++: The whitening degree is higher than that observed when adding 450 μg/mL of vitamin C-magnesium phosphate.; +: The whitening degree is almost identical to that observed when adding 450 μ g/mL of vitamin C-magnesium phosphate.; ±: The whitening degree is not higher than that observed when adding 450 μg/mL of vitamin C-magnesium phosphate, but higher than that of the control.; −: The whitening degree is almost identical to that observed for the control. To be noted: for Whitening degree / added concentration at which the whitening effect is almost identical to that of the positive control: B-16 melanoma cells; for whitening effect, times that observed for vitamin C-magnesium phosphate: from Table 1; for whitening effect, times that observed for vitamin C-magnesium phosphate / added concentration at which the whitening effect is almost identical to that of the positive control: positive control vitamin C-magnesium phosphate 450 ppm. In kind it is cell-based. An excerpt:
(§1) The B-16 melanoma cell is one having an ability of producing melanin and therefore, the cells naturally grown by cell culture blacken. If a substance capable of inhibiting melanogenesis is present in the cell growth system during the cell growth, the blackening of the cells is inhibited and they relatively whiten. Accordingly, the whitening effect of each candidate substance can be evaluated on the basis of the degree of whiteness observed when adding a test sample relative to the degree of blackness observed for a control. […] To evaluate this cytotoxicity, the cell survival rate observed when adding a test sample to the system is compared with that observed for the control. Thus, the substantial whitening effect can be evaluated on the basis of the results of these cell-whitening test and cytotoxicity test.
An example of such a method for evaluating the melanogenesis-inhibitory function in a cell culture system using B-16 melanoma cells comprises, for instance, the steps of dispensing 2 ml/well of a culture medium to each well of a 6-well plate, inoculating a desired amount of melanoma cells to the medium, cultivating the cells by allowing the medium to stand at 37° C. and a carbon dioxide concentration of 5%. On the following day, a solution of a test sample is added and mixed with the culture medium to a predetermined concentration and the cell cultivation is continued. After 5 days from the initiation of the cultivation, the culture medium is replaced with fresh one and the solution of the test sample is again added thereto. On the next day, the medium is removed to thus recover the cells, followed by washing them with PBS (phosphate-buffered saline) and the determination of the degree of whiteness to thus evaluate the whitening effect of the test sample. In this connection, the melanogenesis-inhibitory function is evaluated by comparing the results thus obtained with the degree of whiteness observed when the same procedures are repeated using the vitamin C-magnesium phosphate as a known whitening agent instead of the test sample solution (positive control) and that observed when the procedures are repeated without addition of any test sample (control).
A culture medium was dispensed to wells of a 6-well plate (2 mL/well each), followed by inoculation of a desired amount of B-16 melanoma cells on each well, allowing the wells to stand at 37° C. and 5% CO2 to thus cultivate the cells. On the day subsequent thereto, a sample solution prepared was added to the wells with stirring and the cultivation was continued. The culture medium was replaced with fresh one on the 5th day from the initiation of the cultivation and the sample solution was again added to the wells. On the next day, the culture medium was removed to recover the cells, followed by washing them with PBS (phosphate buffered physiological saline) and then evaluation of the cell-whitening degree In this respect, the melanogenesis-inhibitory function was evaluated by comparing the cell-whitening degree thus obtained with that observed when the same procedures used above were repeated except that vitamin C-magnesium phosphate as a known whitening agent (positive control) was substituted for the sample solution used above and that observed when the same procedures used above were repeated except that any sample was not added (control), according to the following evaluation criteria.
The evaluation criteria for the cell-whitening degree are as follows: […]

Data set [2] relates to B-16 melanoma cells. In words: Cell-survival rate (cytotoxicity) in B-16 melanoma cell culture. In kind it is cell-based.
Description: as §1
The cell-survival rate at each added sample concentration can be determined according to the following formula
Cell-Survival Rate (%)=(A/B)×100
Wherein A represents the viable cell count observed for the system to which a sample is added and B represents the number of cells observed for the control system.

The mark [3] stands for this setting: concentration 2 ppm, B-16 melanoma cells.
[4] abbreviates: concentration 4 ppm, B-16 melanoma cells.
The mark [5] stands for this setting: concentration 6 ppm, B-16 melanoma cells.
Setting [6] is: concentration 8 ppm, B-16 melanoma cells.
Setting [7] is: concentration 10 ppm, B-16 melanoma cells.
Where [8] appears, read: concentration 15 ppm, B-16 melanoma cells.
Setting [9] is: concentration 25 ppm, B-16 melanoma cells.
Where [10] appears, read: concentration 50 ppm, B-16 melanoma cells.

This note sets out measurements from patent US20030133958A1, “External agent for the skin and whitening agent” (priority 2000, published 2003).

In the case of `OC[C@H]1O[C@@H](Oc2ccc(O)cc2)[C@H](O)[C@@H](O)[C@@H]1O` [Arbutin, reference compound], the Whitening degree entry in the data set with B-16 melanoma cells [1] (concentration 10 ppm) is recorded as “−”; in the data set on B-16 melanoma cells [1] (concentration 15 ppm) it was “−”; in the data set with B-16 melanoma cells [1] (concentration 25 ppm), “−”; in the data set on B-16 melanoma cells [1] (concentration 50 ppm), “±”; in the data set on B-16 melanoma cells [1] (concentration 100 ppm) it was “±”; in the data set on B-16 melanoma cells [1] (concentration 200 ppm), “+”. Also, the Whitening degree result in the data set with B-16 melanoma cells [1] (concentration 300 ppm) and with B-16 melanoma cells [1] (concentration 400 ppm) was “++” each time. In addition, the “Cell-Survival Rate” value in the data set with B-16 melanoma cells [2] (mouse, 10 ppm) worked out at 100%; in the data set with B-16 melanoma cells [2] (mouse, 15 ppm), 100%; with B-16 melanoma cells [2] (mouse, 25 ppm), 100%; with B-16 melanoma cells [2] (mouse, 50 ppm), 86%; with B-16 melanoma cells [2] (mouse, 100 ppm), 69%; in the data set on B-16 melanoma cells [2] (mouse, 200 ppm), 56%. The “Cell-Survival Rate” value is recorded as 41% in the data set with B-16 melanoma cells [2] (mouse, 300 ppm) and 16% in the data set with B-16 melanoma cells [2] (mouse, 450 ppm).

Consider `C=C(C)[C@@H]1CC[C@]2(CO)CC[C@]3(C)[C@H](CC[C@@H]4[C@@]5(C)CC[C@H](O)C(C)(C)[C@@H]5CC[C@]43C)[C@@H]12` [Betulin, betulin], for which the Whitening degree entry is on record as “−” in the data set on B-16 melanoma cells [1] (concentration 2 ppm); “−” in the data set with B-16 melanoma cells [1] (concentration 4 ppm); “±” in the data set with B-16 melanoma cells [1] (concentration 6 ppm); “±” with B-16 melanoma cells [1] (concentration 8 ppm); “±” in the data set with B-16 melanoma cells [1] (concentration 10 ppm); “+” with B-16 melanoma cells [1] (concentration 15 ppm). The Whitening degree result in the data set with B-16 melanoma cells [1] (concentration 25 ppm) and in the data set on B-16 melanoma cells [1] (concentration 50 ppm) was “+” each time. In the data set “Solubility (oil / water)”, the “oil-solubility, in words” value was “oil-soluble”. Further, the “Cell-Survival Rate” value in the data set on B-16 melanoma cells [2] (setting [3]), in the data set with B-16 melanoma cells [2] (setting [4]), in the data set with B-16 melanoma cells [2] (setting [5]), in the data set with B-16 melanoma cells [2] (setting [6]), with B-16 melanoma cells [2] (setting [7]) and in the data set on B-16 melanoma cells [2] (setting [8]) was 100% throughout. Also, the “Cell-Survival Rate” value in the data set on B-16 melanoma cells [2] (setting [9]) and in the data set with B-16 melanoma cells [2] (setting [10]) was 100% each time.

In the case of `CC[Si](CC)(CC)OC(=O)[C@]12CCC(C)(C)C[C@H]1C1=CC[C@@H]3[C@@]4(C)C[C@@H](O[Si](CC)(CC)CC)[C@H](O[Si](CC)(CC)CC)C(C)(C)[C@@H]4CC[C@@]3(C)[C@]1(C)CC2` [Compound of Synthesis 3, Triethylsilyl Ester of 2,3-O-Di-Triethylsilyl-Maslinic Acid], the Whitening degree result with B-16 melanoma cells [1] (concentration 2 ppm) is “−”; in the data set with B-16 melanoma cells [1] (concentration 4 ppm), “±”; in the data set with B-16 melanoma cells [1] (concentration 6 ppm) it was “±”; with B-16 melanoma cells [1] (concentration 8 ppm), “+”; with B-16 melanoma cells [1] (concentration 10 ppm), “+”; with B-16 melanoma cells [1] (concentration 15 ppm), “+”. Besides, the Whitening degree entry with B-16 melanoma cells [1] (concentration 25 ppm) and in the data set on B-16 melanoma cells [1] (concentration 50 ppm) was “+” each time. In addition, the “Cell-Survival Rate” value in the data set with B-16 melanoma cells [2] (setting [3]), in the data set with B-16 melanoma cells [2] (setting [4]), in the data set with B-16 melanoma cells [2] (setting [5]), in the data set with B-16 melanoma cells [2] (setting [6]), in the data set with B-16 melanoma cells [2] (setting [7]) and in the data set with B-16 melanoma cells [2] (setting [8]) was 100% throughout. Also, the “Cell-Survival Rate” value in the data set with B-16 melanoma cells [2] (setting [9]) turned out to be 100%; with B-16 melanoma cells [2] (setting [10]), 94%.

Regarding `O=c1cc(CO)occ1O` [Kojic Acid, reference compound], the Whitening degree entry in the data set with B-16 melanoma cells [1] (concentration 10 ppm) is “−”; in the data set with B-16 melanoma cells [1] (concentration 15 ppm) it was “−”; in the data set on B-16 melanoma cells [1] (concentration 25 ppm), “−”; with B-16 melanoma cells [1] (concentration 50 ppm), “±”; in the data set on B-16 melanoma cells [1] (concentration 100 ppm), “±”; in the data set on B-16 melanoma cells [1] (concentration 200 ppm) it was “+”. Moreover, the Whitening degree result in the data set on B-16 melanoma cells [1] (concentration 300 ppm) and in the data set with B-16 melanoma cells [1] (concentration 400 ppm) was “++” throughout. The “Cell-Survival Rate” value with B-16 melanoma cells [2] (mouse, 10 ppm) is reported as 100%; in the data set on B-16 melanoma cells [2] (mouse, 15 ppm), 100%; in the data set with B-16 melanoma cells [2] (mouse, 25 ppm), 100%; in the data set on B-16 melanoma cells [2] (mouse, 50 ppm), 100%; with B-16 melanoma cells [2] (mouse, 100 ppm), 100%; in the data set with B-16 melanoma cells [2] (mouse, 200 ppm) it was 93%. Further, the “Cell-Survival Rate” value in the data set on B-16 melanoma cells [2] (mouse, 300 ppm) was found to be 80%; with B-16 melanoma cells [2] (mouse, 450 ppm), 66%.

Turning to `CC1(C)CC[C@]2(C(=O)O)CC[C@]3(C)C(=CC[C@@H]4[C@@]5(C)C[C@@H](O)[C@H](O)C(C)(C)[C@@H]5CC[C@]43C)[C@@H]2C1` [Purified maslinic acid 1, maslinic acid], the Whitening degree result with B-16 melanoma cells [1] (concentration 2 ppm) is “±”; with B-16 melanoma cells [1] (concentration 4 ppm), “+”; in the data set with B-16 melanoma cells [1] (concentration 6 ppm), “++”; with B-16 melanoma cells [1] (concentration 8 ppm) it was “++”; in the data set on B-16 melanoma cells [1] (concentration 10 ppm) it was “++”. Besides, in the data set with B-16 melanoma cells [1], the “whitening effect, times that observed for vitamin C-magnesium phosphate” value was “about 110 times”. In addition, the “added concentration at which the whitening effect is almost identical to that of the positive control” value in the data set with B-16 melanoma cells [1] is given as 4 ppm. Further, the “Cell-Survival Rate” value stood at 100% in the data set on B-16 melanoma cells [2] (setting [3]); 100% in the data set with B-16 melanoma cells [2] (setting [4]); 100% in the data set with B-16 melanoma cells [2] (setting [5]); 79% with B-16 melanoma cells [2] (setting [6]); 57% with B-16 melanoma cells [2] (setting [7]).

In the case of `CC1(C)CC[C@]2(C(=O)O)CC[C@]3(C)C(=CC[C@@H]4[C@@]5(C)C[C@@H](O)[C@H](O)C(C)(C)[C@@H]5CC[C@]43C)[C@@H]2C1` [Purified maslinic acid 2, maslinic acid], the Whitening degree entry was “±” with B-16 melanoma cells [1] (concentration 2 ppm); “+” in the data set with B-16 melanoma cells [1] (concentration 4 ppm); “++” with B-16 melanoma cells [1] (concentration 6 ppm); “++” in the data set with B-16 melanoma cells [1] (concentration 8 ppm); “++” with B-16 melanoma cells [1] (concentration 10 ppm). In the data set on B-16 melanoma cells [1], the “whitening effect, times that observed for vitamin C-magnesium phosphate” value was “about 110 times”. The “added concentration at which the whitening effect is almost identical to that of the positive control” value with B-16 melanoma cells [1] turned out to be 4 ppm. Moreover, the “Cell-Survival Rate” value came to 100% in the data set on B-16 melanoma cells [2] (setting [3]); 100% in the data set with B-16 melanoma cells [2] (setting [4]); 100% in the data set with B-16 melanoma cells [2] (setting [5]); 88% with B-16 melanoma cells [2] (setting [6]); 69% with B-16 melanoma cells [2] (setting [7]).

On to `CC1(C)CC[C@]2(C(=O)O)CC[C@]3(C)C(=CC[C@@H]4[C@@]5(C)C[C@@H](O)[C@H](O)C(C)(C)[C@@H]5CC[C@]43C)[C@@H]2C1` [maslinic acid], for which, in the data set “Solubility (oil / water)”, the “oil-solubility, in words” value was “oil-soluble” and the “solubility in water, in words” value was “hardly soluble in water”.

Take `C[C@H]1[C@H](C)CC[C@]2(C)CC[C@]3(C)C(=CC[C@@H]4[C@@]5(C)CC[C@H](O)C(C)(C)[C@@H]5CC[C@]43C)[C@H]12` [α-amyrin, reference compound]: the “whitening effect (melanogenesis-inhibitory function), in words” value in the data set on B-16 melanoma cells [1] is “never show any whitening effect”.

`CC1(C)CC[C@]2(C)CC[C@]3(C)C(=CC[C@@H]4[C@@]5(C)CC[C@H](O)C(C)(C)[C@@H]5CC[C@]43C)[C@@H]2C1` [β-amyrin, reference compound]: the “whitening effect (melanogenesis-inhibitory function), in words” value in the data set on B-16 melanoma cells [1] is listed as “never show any whitening effect”.

In the case of “Ethyl Ester of 2,3-O-Di-Stearoyl-Maslinic Acid [Compound of Synthesis 4]”, the Whitening degree entry is “±” with B-16 melanoma cells [1] (concentration 2 ppm); “±” in the data set with B-16 melanoma cells [1] (concentration 4 ppm); “+” in the data set with B-16 melanoma cells [1] (concentration 6 ppm); “++” in the data set with B-16 melanoma cells [1] (concentration 8 ppm); “++” in the data set with B-16 melanoma cells [1] (concentration 10 ppm); “++” in the data set on B-16 melanoma cells [1] (concentration 15 ppm).
